Measurements: US4598089A, “Leucine derivatives” (Hoffmann-La Roche Inc., priority 1983, dated 1986)

Experiments:
[1] = acute toxicity, single oral administration to mice; settings: mouse, in vivo
Experimental: An emulsion which contains 1 mM taurodeoxycholate, 9 mM taurodeoleate, 0.1 mM cholesterol, 1 mM egg lecithin, 15 mg/ml BSA (i.e., bovine serum albumine), 2 mM Tris-HCl, 100 mM sodium chloride, 1 mM calcium chloride and the substrate triolein is treated with the compound of formula I dissolved in ethanol or dimethyl sulphoxide (10% of the emulsion volume) and the reaction is started by the addition of 100 μl (175 U) of pig pancreas lipase. the pH is held at 8 during the reaction by the addition of sodium hydroxide. The IC50 is calculated from the consumption of sodium hydroxide determined during 10 minutes. The IC50 is that concentration at which the lipase reactivity is inhibited to half of the maximum. Table I hereinafter contains IC50 values determined for the compounds of formula I and data concerning the acute toxicity (LD50 after single oral administration to mice).

[2] = target: T1, pig pancreas lipase (Sus scrofa, UniProt P00591); experiment: inhibition of pancreas lipase (titrimetric, oleic acid liberated from triolein); type: biochemical
T1 sequence (P00591 1-450): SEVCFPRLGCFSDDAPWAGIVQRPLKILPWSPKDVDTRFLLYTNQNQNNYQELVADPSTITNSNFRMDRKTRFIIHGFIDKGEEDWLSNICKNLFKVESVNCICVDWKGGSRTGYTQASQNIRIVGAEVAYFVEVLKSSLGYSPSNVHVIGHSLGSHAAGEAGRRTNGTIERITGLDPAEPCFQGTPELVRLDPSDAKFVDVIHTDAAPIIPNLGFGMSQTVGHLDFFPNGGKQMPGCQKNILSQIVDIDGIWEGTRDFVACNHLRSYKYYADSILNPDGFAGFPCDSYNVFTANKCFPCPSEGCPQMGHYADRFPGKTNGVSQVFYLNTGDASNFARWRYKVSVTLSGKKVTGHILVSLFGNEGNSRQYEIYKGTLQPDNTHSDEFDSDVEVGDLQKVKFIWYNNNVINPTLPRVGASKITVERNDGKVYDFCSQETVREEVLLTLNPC
Text: The IC50 is that concentration at which the lipase reactivity is inhibited to half of the maximum.

[3] = system: resorption of fats; experiment: inhibition of the resorption of fats, double-labelling experiment on mice (3H-triolein and 14C-oleic acid excreted with the feces); type: in vivo; settings: 40 mg/kg lipstatin, given as preparation containing about 10% lipstatin, test meal
Experimental: For this purpose, there is administered to the test animals a test meal, which contains ^3 H-triolein and ^14 C-oleic acid, and a compound of formula I. By measuring the radioactivity there is then determined the amount of ^3 H-triolein and ^14 C-oleic acid (in % of the amount administered) excreted with the feces.
*The experiments were carried out with a preparation which contained abou
10% lipstatin. The dosage specified is the amount of lipstatin

With CCCCC/C=C\C/C=C\C[C@@H](C[C@@H]1OC(=O)[C@H]1CCCCCC)OC(=O)[C@H](CC(C)C)NC=O [Lipstatin, (2S,3S,5S,7Z,10Z)-5-[(S)-2-formamido-4-methyl-valeryloxy]-2-hexyl-3-hydroxy-7,10-hexadecadienoic acid lactone] the LD50 [1] was greater than 4000 mg/kg, the IC50 [2] was 142 nM and the “Excretion of Triolein in % of the amount administered” value ([3]; controls 3.5 ± 0.3) was 56.8 ± 13 % of the amount administered. For the same molecule, the “Excretion of Oleic acid in % of the amount administered” value ([3]; controls 10.1 ± 0.6) was 13.8 ± 5.6 % of the amount administered.
